Measurements reported in US9950048B2, “Immunogenic epitopes for immunotherapy” (immatics biotechnologies GmbH, priority 2007, dated 2018).
Ends that are not written are not given here.

Legend:
[1] = test system: CD8+ T cells of healthy HLA-A*02+ donors; experiment: In vitro priming of CD8+ T cells with pMHC/anti-CD28 coated beads (high density), tetramer analysis; format: cell-based, human; settings: for Immunogenicity detected: at least one well with ≥1% specific tetramer+ among CD8+ T-cells and ≥10× median of negative controls; for Positive donors/donors tested / Positive donors/donors tested (%) / Positive wells/wells tested / Positive wells/wells tested (%): high density beads
Method: To perform in vitro stimulations by artificial antigen presenting cells (aAPC) loaded with peptide-MHC complex (pMHC) and anti-CD28 antibody, first PBMCs (peripheral blood mononuclear cells) were isolated from fresh HLA-A*02+ buffy coats by using standard density gradient separation medium (PAA, Cölbe, Germany). Buffy coats were either obtained from the Blood Bank Tübingen or from the Katharinenhospital Stuttgart. Isolated PBMCs were incubated overnight in T-cell medium (TCM) for human in vitro priming consisting of RPMI-Glutamax (Invitrogen, Karlsruhe, Germany) supplemented with 10% heat inactivated human AB serum (PAA, Cölbe, Germany), 100 U/ml Penicillin/100 μg/ml Streptomycin (Cambrex, Verviers, Belgium), 1 mM sodium pyruvate (CC Pro, Neustadt, Germany) and 20 μg/ml Gentamycin (Cambrex). CD8+ lymphocytes were isolated using the CD8+ MACS positive selection kit (Miltenyi, Bergisch Gladbach, Germany) according to the manufacturer's instructions. Obtained CD8+ T-cells were incubated until use in TCM supplemented with 2.5 ng/ml IL-7 (PromoCell, Heidelberg, Germany) and 10 U/ml IL-2 (Chiron, Munich, Gemany). Generation of pMHC/anti-CD28 coated beads, T-cell stimulations and readout was performed as described before (Walter, S, et al., 2003, J. Immunol., 171, 4974-4978) with minor modifications. Briefly, biotinylated recombinant HLA-A*0201 molecules lacking the transmembrane domain and being biotinylated at the carboxy terminus of the heavy chain were produced following a method described by (Altman, J D, et al., 1996, Science, 274, 94-96). The purified costimulatory mouse IgG2a anti human CD28 Ab 9.3 (Jung, G, Ledbetter, J A, and Muller-Eberhard, H J; 1987, Induction of cytotoxicity in resting human T lymphocytes bound to tumor cells by antibody heteroconjugates, Proc Natl Acad Sci USA, 84, 4611-4615) was chemically biotinylated using Sulfo-N-hydroxysuccinimidobiotin as recommended by the manufacturer (Perbio, Bonn, Germany).
800,000 beads/200 μl were coated in 96-well plates in the presence of 600 ng biotin anti-CD28 plus 200 ng relevant biotin-pMHC (high density beads) or 2 ng relevant plus 200 ng irrelevant (pMHC library) MHC (low density beads). Stimulations were initiated in 96-well plates by conincubating 1×10^6 CD8+ T cells with 2×10^5 washed coated beads in 200 μl TCM supplemented with 5 ng/ml IL-12 (PromoCell) for 3-4 days at 37° C. Half of the medium was then exchanged by fresh TCM supplemented with 80 U/ml IL-2 and incubation was continued for 3-4 days at 37° C. This stimulation cycle was performed for a total of three times. Finally, tetrameric analyses were performed with fluorescent MHC tetramers (produced as described by (Altman, J D, et al., 1996, Science, 274, 94-96)) plus antibody CD8-FITC clone SK1 (BD, Heidelberg, Germany) on a four-color FACSCalibur (BD). Peptide specific cells were calculated as percentage of total CD8+ T cells. Evaluation of tetrameric analysis was performed using the software FCS Express (De Novo Software). In vitro priming of specific tetramer+CD8+ lymphocytes was detected by appropriate gating and by comparison to negative control stimulations.
Peptides of the present invention were tested together with peptides of known in vivo immunogenicity for comparison. The CEA-005 peptide that was optimised for in vitro T-cell induction (Fong, L, et al., 2001, J. Immunol., 166, 4254-4259) served as control.
Results of in vitro immunogenicity experiments conducted by immatics are summarised here. Results shown have been obtained by stimulation of CD8+ cells with high density beads. As different human serum lots may highly affect the immunogenicity results, only assays in which one and the same serum lot was used, were evaluated together.

[2] = test system: sorted CD8+ NOX-001 tetramer+ T-cell line; experiment: IFNγ ELISPOT functionality test of sorted specific CD8+ T-cell line; format: cell-based, human; settings: FIG. 8
Method: FIGS. 8A and 8B depict the ELISPOT analysis of IFNγ production by T-cell lines upon in vitro restimulation with the NOX-001 peptide. FIG. 8A is T-cell line 7+ from donor HBC-154 (sorted CD8+ NOX-001 tetramer+). FIG. 8B is T-cell line 7—from donor HBC-154 (sorted CD8+ NOX-001 tetramer+).
Sorted CD8+ NOX-001 tetramer+(A.) and CD8+ NOX-001 tetramer-(B.) cells were analysed by IFNγ ELISPOT after restimulation with irrelevant (MLA-001) (upper wells) and relevant (NOX-001) (lower wells) peptide (10 μg/ml). Numbers indicate the count of positive spots.
To determine their functionality, IFNγ production was assessed by ELISPOT (IFNγ ELISPOT Set, BD, Germany) after restimulation of the cells with the corresponding peptide. Additionally, cell-mediated cytotoxicity of specific CTLs was investigated by killing of tumor cell lines using the LIVE/DEAD cell-mediated cytotoxicity Kit (L7010, Invitrogen, Germany). Both assays were performed according to manufacturer's instructions, except noted otherwise.

Sequence | Immunogenicity detected [1] | Positive donors/donors tested [1] | Positive donors/donors tested (%) [1] | Positive wells/wells tested [1] | Positive wells/wells tested (%) [1] | IFNγ production of T-cell line after restimulation with peptide [2]
ILAPVILYI [NOX-001] | yes | 3/5 | (60%) | 9/60 | (15%) | specifically expressing IFNγ after restimulation with this peptide
ALFVRLLALA [TGFBI-001] | yes | 3/4 | (75%) | 4/22 | (18%) | 
